# In patent publication US20240067657A1, “AMIDO-SUBSTITUTED PYRIDYL COMPOUNDS AND METHODS OF USE THEREOF FOR THE TREATMENT OF HERPESVIRUSES” (Merck Sharp & Dohme LLC, priority 2020, published 2024):
# Read-outs that look alike come from different tables or passages of the source.
# What was measured:
# [1] = target: T1, Human cytomegalovirus DNA polymerase (Human cytomegalovirus, UniProt P08546); experiment: HCMV polymerase assay (AlphaLISA, IC50); assay type: biochemical; conditions: polymerase assay of Example 190
# T1 construct: made in house; host or cells: SF21 insect cells (baculovirus vector)
# In short: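 Baculovirus-expressed polymerase (HCMV 0.2 nM, VZV 0.4 nM final) preincubated 30 min at room temperature with compound in pH 7.5 HEPES buffer; reaction started with 1.6 nM DIG-primer/template and nM dNTPs including biotin-dUTP, run 60 min at 37° C. Incorporation detected by AlphaLISA; IC50 from 4-parameter fit.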
# [2] = target: T2, varicella zoster virus DNA polymerase (Varicella-zoster virus, UniProt P09252); experiment: VZV polymerase assay (AlphaLISA, IC50); assay type: biochemical; conditions: polymerase assay of Example 190
# T2 construct: made in house; host or cells: SF21 insect cells (baculovirus vector)
# Experimental: Human cytomegalovirus and varicella zoster virus DNA polymerases were expressed via baculovirus vector in SF21 cells and purified. Heterodimeric nucleic acid substrate used in the herpesvirus polymerase reactions was generated by annealing a 59-mer template to a 17-mer digoxigenin-labeled primer. Polymerase (HCMV final concentration of 0.2 nM; VZV final concentration of 0.4 nM) was combined with an inhibitor compound or DMSO in assay buffer (10 mM HEPES, pH 7.5, 25 mM KCl, 25 mM NaCl, 5 mM MgCl2, 5% glycerol, 0.67 mg/ml bovine serum albuminutes, and 1 mM tris(2-carboxyethyl)phosphine), and this mixture was pre-incubated for 30 minutes at room temperature in 384-well microtiter plates. The polymerization reaction was initiated by the addition of template/primer substrate (final concentration: 1.6 nM), and dNTPs (final concentration: 24 nM dCTP, 24 nMdGTP, 16 nM dATP, 16 nM dTTP, and 0.8 nM biotin-dUTP). After 60 minutes incubation at 37° C., reactions were terminated with quench buffer (25 mM HEPES pH 7.5, 100 mM NaCl, 0.25% Tween-20, 12 mM EDTA, and 1 mg/ml bovine serum albumin). Incorporation of biotinylated UTP was detected with 2.5-5 ug/ml anti-DIG AlphaLISA acceptor beads and 5-10 ug/ml streptavidin AlphaLISA donor beads (Perkin Elmer). Compound effects were normalized to the window defined by the controls (DMSO only and pre-quenched wells), and were fit using a 4-parameter algorithm to report an IC50.
# [3] = tested on: VZV in MeWo or MRC5 cells; experiment: Viral qPCR assay VZV (V0/V1, V2/V3), EC50; assay type: cell-based; conditions: 10%
# In short: (§1)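 Infected cells added to compounds (10-point 3-fold series), ~72 h at 37 °C, then lysed; viral genomes by TaqMan qPCR against plasmid standard, normalized to PPIA in V0/V1 only, EC50 from 4-parameter fit. HCMV AD169, 0.05-0.1 pfu/cell, ± 50% FBS; VZV 0.04-0.1 pfu/cell; HSV-1 F 0.0005-0.004 pfu/cell.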
# [4] = tested on: HCMV Strain AD169 in MRC-5 cells; experiment: Viral qPCR assay HCMV (V0/V1, V2/V3), EC50; assay type: cell-based; conditions: read-out: HCMV Cell (EC50)
# In short: as §1
# [5] = tested on: HSV-1 Strain F in Vero or MRC5 cells; experiment: Viral qPCR assay HSV-1 (V0/V1, V2/V3), EC50; assay type: cell-based; conditions: 10%
# In short: as §1
# [6] = Human alphaherpesvirus 3, MeWo, MEWO cells, read-out: VZV Cell (EC50) MEWO 10%
# [7] = Human betaherpesvirus 5, AD169, MRC5, viral qPCR assay of Example 191
# [8] = Human alphaherpesvirus 1, Vero, VERO cells, read-out: HSV1 Cell (EC50) VERO 10%
# [9] = Human alphaherpesvirus 3, MRC5, MRC5 cells, read-out: VZV Cell (EC50) MRC5 10%
# [10] = Human alphaherpesvirus 1, MRC5, MRC5 cells, read-out: HSV1 Cell (EC50) MRC5 10%
# T1 sequence (P08546 whole entry): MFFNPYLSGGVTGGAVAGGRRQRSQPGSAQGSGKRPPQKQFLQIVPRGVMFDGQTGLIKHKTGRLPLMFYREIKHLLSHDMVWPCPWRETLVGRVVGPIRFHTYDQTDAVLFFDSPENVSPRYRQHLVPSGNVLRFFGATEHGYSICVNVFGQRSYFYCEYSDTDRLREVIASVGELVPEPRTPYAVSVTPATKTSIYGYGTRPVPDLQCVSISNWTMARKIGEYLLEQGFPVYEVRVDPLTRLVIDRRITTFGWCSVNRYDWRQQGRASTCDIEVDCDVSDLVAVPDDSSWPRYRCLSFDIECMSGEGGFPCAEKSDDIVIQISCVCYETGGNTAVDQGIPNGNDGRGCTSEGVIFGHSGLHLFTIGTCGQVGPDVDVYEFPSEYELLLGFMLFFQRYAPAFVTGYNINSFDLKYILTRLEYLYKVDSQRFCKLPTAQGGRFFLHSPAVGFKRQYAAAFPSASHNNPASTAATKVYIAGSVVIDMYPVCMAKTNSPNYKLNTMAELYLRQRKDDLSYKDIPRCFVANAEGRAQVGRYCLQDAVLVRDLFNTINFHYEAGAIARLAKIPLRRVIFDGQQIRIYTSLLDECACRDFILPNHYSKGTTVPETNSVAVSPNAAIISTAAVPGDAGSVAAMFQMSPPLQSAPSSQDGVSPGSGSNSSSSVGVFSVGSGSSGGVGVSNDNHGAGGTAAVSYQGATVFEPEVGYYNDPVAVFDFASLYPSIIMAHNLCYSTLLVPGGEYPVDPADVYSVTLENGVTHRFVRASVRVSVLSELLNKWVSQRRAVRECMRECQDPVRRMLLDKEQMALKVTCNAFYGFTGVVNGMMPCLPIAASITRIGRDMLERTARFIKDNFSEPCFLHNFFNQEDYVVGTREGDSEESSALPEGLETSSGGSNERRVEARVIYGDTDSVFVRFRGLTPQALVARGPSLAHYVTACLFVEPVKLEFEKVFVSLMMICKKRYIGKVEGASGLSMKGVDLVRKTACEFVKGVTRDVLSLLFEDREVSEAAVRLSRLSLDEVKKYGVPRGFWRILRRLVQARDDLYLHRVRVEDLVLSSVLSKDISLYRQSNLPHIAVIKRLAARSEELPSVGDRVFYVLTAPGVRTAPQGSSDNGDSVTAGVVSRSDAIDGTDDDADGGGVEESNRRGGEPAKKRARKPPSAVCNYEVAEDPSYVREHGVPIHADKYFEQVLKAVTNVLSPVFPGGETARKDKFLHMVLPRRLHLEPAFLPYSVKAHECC
# T2 sequence (P09252 whole entry): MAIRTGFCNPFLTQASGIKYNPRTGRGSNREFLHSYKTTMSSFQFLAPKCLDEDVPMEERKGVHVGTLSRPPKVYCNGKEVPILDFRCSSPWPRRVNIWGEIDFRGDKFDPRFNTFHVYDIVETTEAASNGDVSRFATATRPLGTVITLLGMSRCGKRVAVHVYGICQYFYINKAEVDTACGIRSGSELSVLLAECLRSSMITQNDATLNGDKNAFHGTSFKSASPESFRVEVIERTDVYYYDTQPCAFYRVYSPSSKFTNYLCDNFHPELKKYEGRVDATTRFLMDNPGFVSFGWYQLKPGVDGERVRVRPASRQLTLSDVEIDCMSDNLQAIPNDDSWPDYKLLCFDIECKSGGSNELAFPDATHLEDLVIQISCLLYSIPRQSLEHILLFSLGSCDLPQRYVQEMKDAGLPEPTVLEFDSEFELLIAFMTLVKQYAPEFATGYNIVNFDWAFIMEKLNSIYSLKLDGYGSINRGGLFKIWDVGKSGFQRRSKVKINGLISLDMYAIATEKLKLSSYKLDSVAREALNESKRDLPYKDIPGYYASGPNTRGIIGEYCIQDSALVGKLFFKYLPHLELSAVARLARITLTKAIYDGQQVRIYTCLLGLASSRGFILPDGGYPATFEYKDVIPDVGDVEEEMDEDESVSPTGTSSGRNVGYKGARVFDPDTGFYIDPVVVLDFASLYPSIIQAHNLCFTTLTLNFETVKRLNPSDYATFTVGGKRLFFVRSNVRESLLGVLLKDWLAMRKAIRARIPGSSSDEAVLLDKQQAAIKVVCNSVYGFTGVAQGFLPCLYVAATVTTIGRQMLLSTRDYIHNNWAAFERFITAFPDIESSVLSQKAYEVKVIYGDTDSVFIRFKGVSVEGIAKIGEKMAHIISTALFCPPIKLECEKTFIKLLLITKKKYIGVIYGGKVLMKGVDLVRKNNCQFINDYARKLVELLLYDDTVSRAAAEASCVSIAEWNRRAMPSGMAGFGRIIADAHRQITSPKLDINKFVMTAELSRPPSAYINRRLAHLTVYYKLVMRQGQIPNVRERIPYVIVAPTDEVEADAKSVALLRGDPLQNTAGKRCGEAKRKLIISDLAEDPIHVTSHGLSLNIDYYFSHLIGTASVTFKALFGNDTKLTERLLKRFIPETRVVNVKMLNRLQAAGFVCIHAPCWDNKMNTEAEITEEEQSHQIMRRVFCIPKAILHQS
IC50 [1] [nM],IC50 [2] [nM],Structure (SMILES),"EC50 [3, 6] [nM]","EC50 [4, 7] [nM]","EC50 [5, 8] [nM]","EC50 [3, 9] [nM]","EC50 [5, 10] [nM]","EC50 ([3]; MRC5 cells, read-out: VZV Cell (EC50) MRC5 10%) [nM]",EC50 ([4]; viral qPCR assay of Example 191) [nM],"EC50 ([5]; VERO cells, read-out: HSV1 Cell (EC50) VERO 10%) [nM]"
14,15.7,Cn1cc(-c2cnc(C(=O)NCc3ccc(Cl)cc3F)cc2O[C@H]2CCN3C(=O)OC[C@@H]3C2)cn1 [Compound 97],95.5,101,191,,,,,
38.8,23.9,Cn1cc(-c2cnc(C(=O)NCc3ccc(C#N)cc3)cc2O[C@H]2CCN3C(=O)OC[C@@H]3C2)cn1 (racemic) [Compound 95],241,181,1920,,,,,
19,23.4,CSc1cnc(C(=O)NCc2ccc(Cl)cc2)cc1O[C@H]1CCN2C(=O)OC[C@@H]2C1 [Compound 147a],,245,,622,414,,,
8.15,7.5,CC(C)(O)Cn1cc(-c2cnc(C(=O)NCc3ccc(Cl)cc3)cc2O[C@H]2CCN3C(=O)OC[C@@H]3C2)cn1 [Compound 35],,396,1000,440,205,,,
45.1,26.4,O=C(NCc1ccc(Cl)cc1)c1cc(O[C@H]2CCN3C(=O)OC[C@@H]3C2)c(C2CC(F)(F)C2)cn1 [Compound 108],,844,,1620,646,,,
31.7,21.4,Cn1cc(-c2cnc(C(=O)NCc3ccc(F)c(F)c3F)cc2O[C@H]2CCN3C(=O)OC[C@@H]3C2)cn1 [Compound 94],155,111,368,427,412,,,
5,3.88,Cc1cnc(-c2cnc(C(=O)NCc3ccc(Cl)cc3)cc2O[C@H]2CCN3C(=O)OC[C@@H]3C2)s1 [Compound 41],70.8,89.9,12.2,97.4,39,,,
214,152,CN(CCCO)Cc1cnc(C(=O)NCc2ccc(Cl)cc2)cc1O[C@H]1CCN2C(=O)OC[C@@H]2C1 [Compound 136],386,989,9260,,,,,
5.28,6.25,CC(=O)N1CC[C@@H](Oc2cc(C(=O)NCc3ccc(Cl)cc3)ncc2-c2cnc(C)o2)C[C@H]1C [Compound 165],,141,,138,122,,,
50.9,38,CCCn1cc(-c2cnc(C(=O)NCc3ccc(Cl)cc3)cc2O[C@H]2CCN3C(=O)OC[C@@H]3C2)cn1 (racemic) [Compound 13],601,363,388,,,,,
8.03,4.96,"O=C(NCc1ccc(Cl)cc1)c1cc(O[C@H]2CCN3C(=O)OC[C@@H]3C2)c(C2CC2CO)cn1 (single isomer, unassigned) [Compound 156-2]",,,,,,1180,600,738
35,36.7,CO[C@H]1CN(Cc2cnc(C(=O)NCc3ccc(Cl)cc3)cc2O[C@H]2CCN3C(=O)OC[C@@H]3C2)[C@@H]1C (mixture of isomers) [Compound 137],,575,602,1420,,,,
83.2,31.7,O=C(NCc1ccc(Cl)cc1)c1cc(O[C@H]2CCN3C(=O)OC[C@@H]3C2)c(CN2CCOCC2)cn1 [Compound 78],642,446,560,,,,,
9.24,7.85,Cn1cc(-c2cnc(C(=O)NCc3ccc(Cl)cc3)cc2O[C@H]2CCN3C(=O)OC[C@@H]3C2)cn1 [Compound 29],51.6,107,184,109,102,,,
